Experimental data taken from patent publication US20200022995A1, “Novel Immunodulating Small Molecules” (AyuVis Research, Inc., priority 2018, published 2020).

Key:
TLR4 = TLR4 (Homo sapiens, UniProt O00206); experiment: TLR4 inhibitory and activating activity in THP-1 cells; assay type: cell-based; parameters: endogenous in cells; host or cells: THP-1 monocytes, PMA-stimulated
hPBMC = experiment: Cytotoxicity in hPBMC (MTT); assay type: cell-based, human; conditions: 0.1, 1.0, 10, 100 and 1000 μM, 24 h
Method: The cells were treated with compounds and incubated for 24 h. Cell viability was assessed using MTT cell proliferation kit (Promega). All the compounds were not toxic to hPMBC (FIG. 12).

neonatal pups with BPD = experiment: Hyperoxia mouse model of BPD (newborn pups); assay type: in vivo; conditions: for lung injury in neonatal pups with BPD: mouse model of BPD; for TLR4 inhibition in an in vivo model system: neonatal pups with BPD; for lung architecture: saline IV and nanosuspension IN
Text: Neonatal mice and humans undergo similar stages of lung development but differ with respect to the duration of each stage and its temporal relationship to gestational age. The lungs of the mouse born at term are in the saccular stage and are surfactant sufficient; this can be considered somewhat akin to a human preterm neonate in the same stage of lung development that has been exposed to a full complement of antenatal steroids (which is known to enhance surfactant production). In terms of mimicking the human condition, the most successful hyperoxia models are those that limit exposure to hyperoxia to the saccular stage of pulmonary development. The mouse BPD model involves exposing newborn mice (postnatal day 1 or PN1) to 100% oxygen till PN4 followed by recovery in room air (RA) for another 10 days.
After the recovery period, their lungs were harvested and processed for quantitative PCR, western blotting, histopathology and ELISA.
Each of the compounds 3, 8 or 32 encapsulated in PLGA nanoparticles referred as 3NP, 8NP and 32NP was instilled intranasally (IN) as nanosuspension to newborn pups on PN2 and PN4 at different doses (FIG. 28). After the recovery period, their lungs were harvested and processed for quantitative PCR, western blotting and histopathology and ELISA.
BPD is characterized by large simplified alveoli, inflammation, increased cell death, decreased cell proliferation, dysmorphic capillary configuration, and variable interstitial cellularity and/or fibroproliferation. […] This is determined by measuring the alveolar chord length, septal thickness and radial alveolar count (RAC). In BPD, the alveolar area increases which is characterized by increase in the diameter of the alveolar sacs, the septa become thickened (thus interfering in gaseous exchange) and the RAC, a parameter used to assess the complexity of terminal respiratory unit by pulmonologists, decreases as a result of arrested lung development.

THP-1 cells = experiment: Monocyte differentiation, phagocytosis and intracellular killing of Pseudomonas aeruginosa in THP-1 cells; assay type: cell-based, human
Text: Two of these compounds 8 and 32 stimulated monocyte differentiation into macrophages, increased phagocytosis of Pseudomonas aeruginosa (FIG. 18) and increased intracellular killing of bacteria (FIG. 19). These compounds have potential to be used as vaccine adjuvants and in combination with existing antibiotic for prophylactic treatment such as in cystic fibrosis patients.

HUVECs [1] = experiment: Anti-angiogenic activity, VEGF induced tube formation in HUVECs; assay type: cell-based, human; conditions: VEGF 100 ng/mL
Method: Selected TLR2/4 antagonist compounds 2, 6, 7, 8, 14, 17 and 32 were evaluated for anti-angiogenic activity using the Tube Formation kit (Cat #3470-096-K). VEGF (100 ng/mL) was used as positive control. These compounds have potential applications in diseases associated with pathological angiogenesis such as solid tumor, […], diabetic retinopathy as well as AMD.

HUVECs [2] = experiment: Cytotoxicity in HUVECs (MTT); assay type: cell-based, human; conditions: 100 μM, 24 h
Method: Selected TLR2/4 antagonist compounds 2, 6, 7, 8, 14, 17 and 32 were evaluated for cytotoxicity in HUVECs at 100 μM concentration. The cells were treated with compounds and incubated for 24 h. Cell viability was assessed using MTT cell proliferation kit (Promega). All the compounds were not toxic to HUVECs (FIG. 15).

[3] = test system: normal lung epithelial cells (AT-1); conditions: 1 mM and 2 mM, 48 h
Method: Compounds 8, 17, 29 and 35 were tested for cytotoxicity in normal lung epithelial cells (AT-1) at concentrations of 1 mM and 2 mM. The cells were treated with compounds and incubated for 48 h. Cell viability was assessed using tryptan blue live/dead assay.

[4] = test system: P. aeruginosa (ATCC-10145 GFP) infected skin wounds; experiment: Murine skin wound infection with P. aeruginosa; assay type: in vivo, C57BL/6 mice
Method: Five groups of C57BL/6 mice (8-10 weeks old, n=4) were wounded on the dorsal surface. 25 ul containing 10^6 CFU/mL P. aeruginosa in a PBS suspension were pipetted onto the wound and allowed to absorb for at least 3 min. […] Subsequently and for the next 13 days, infected wounds were treated each alternate day with colistin, or with test compounds.

Chain of TLR4 (O00206 24-839): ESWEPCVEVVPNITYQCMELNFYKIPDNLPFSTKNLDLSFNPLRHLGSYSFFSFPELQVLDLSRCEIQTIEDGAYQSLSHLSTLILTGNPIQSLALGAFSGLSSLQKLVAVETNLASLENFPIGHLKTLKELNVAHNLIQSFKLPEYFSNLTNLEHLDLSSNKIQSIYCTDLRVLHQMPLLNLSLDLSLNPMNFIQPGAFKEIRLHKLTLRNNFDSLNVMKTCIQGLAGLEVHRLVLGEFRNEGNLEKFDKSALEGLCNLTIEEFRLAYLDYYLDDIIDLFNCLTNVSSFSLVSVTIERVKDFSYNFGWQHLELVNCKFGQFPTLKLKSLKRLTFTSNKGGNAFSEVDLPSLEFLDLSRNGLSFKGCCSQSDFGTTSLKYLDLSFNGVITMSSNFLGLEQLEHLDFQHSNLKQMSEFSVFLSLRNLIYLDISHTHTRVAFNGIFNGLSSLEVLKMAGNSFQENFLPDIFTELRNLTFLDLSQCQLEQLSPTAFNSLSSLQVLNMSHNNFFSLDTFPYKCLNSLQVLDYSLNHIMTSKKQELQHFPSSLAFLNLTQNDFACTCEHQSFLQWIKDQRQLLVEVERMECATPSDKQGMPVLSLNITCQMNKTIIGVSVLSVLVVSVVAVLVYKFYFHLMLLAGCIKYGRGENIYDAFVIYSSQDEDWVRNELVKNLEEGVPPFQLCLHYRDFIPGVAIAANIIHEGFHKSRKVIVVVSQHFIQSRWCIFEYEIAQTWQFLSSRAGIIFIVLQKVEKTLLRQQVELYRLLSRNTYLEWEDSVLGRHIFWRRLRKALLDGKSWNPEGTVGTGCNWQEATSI

TLR2/4 antagonist or TLR4 agonist activity as shown in Table-1 (TLR4) | Compound | cytotoxicity in hPBMC (hPBMC) | VEGF induced tube formation (HUVECs [1]) | cytotoxicity in HUVECs (HUVECs [2]) | further results
TLR4 agonists | CC(=O)NC1[C@H](Oc2cccc3sc(NC(=O)C(C)(C)C)nc23)O[C@H](CO)[C@@H](O)[C@@H]1O (single isomer, unassigned) [Compound 23] | – | – | – | –
TLR4 agonists | CC(=O)NC1[C@H](Oc2ccc(N3CCN(C(C)=O)CC3)cc2)O[C@H](CO)[C@@H](O)[C@@H]1O (single isomer, unassigned) [Compound 28] | – | – | – | –
TLR4 agonists | CC(=O)NC1[C@H](Oc2ccc3c(C)cc(=O)oc3c2)O[C@H](CO)[C@@H](O)[C@@H]1O (single isomer, unassigned) [Compound 29] | – | – | – | –
– | CC(=O)NC1[C@H](Oc2ccc(B3OC(C)(C)C(C)(C)O3)cc2)O[C@H](CO)[C@@H](O)[C@@H]1O (single isomer, unassigned) [Compound 32, p-Pinacoloneboronatephenyl 2-acetamido-2-deoxy-β-D-glucopyranoside] | not toxic | significantly deceased | not toxic | lung injury in neonatal pups with BPD (neonatal pups with BPD): prevent lung injury; TLR4 inhibition in an in vivo model system (neonatal pups with BPD): inhibit TLR4; lung architecture (neonatal pups with BPD): restored; monocyte differentiation into macrophages (THP-1 cells): stimulated; intracellular killing of bacteria (THP-1 cells; Pseudomonas aeruginosa, THP-1 cells): increased; phagocytosis of Pseudomonas aeruginosa (THP-1 cells; THP-1 cells): increased
TLR4 agonists | CC(=O)NC1C(Oc2ccc3nonc3c2)OC(CO)C(O)C1O (stereo in doubt) [Compound 17, N-((2S,3R,4S,5S,6R)-2-(benzo[c][1,2,5]oxadiazol-5-yloxy)-4,5-dihydroxy-6-(hydroxymethyl)tetrahydro-2H-pyran-3-yl)acetamide] | not toxic | significantly deceased | not toxic | –
– | CC(=O)N[C@@H]1[C@@H](OC(C)=O)[C@H](OC(C)=O)[C@@H](COC(C)=O)O[C@H]1NC(=O)c1ccc(O[C@@H]2O[C@H](CO)[C@@H](O)[C@H](O)[C@H]2NC(C)=O)cc1 [Compound 2] | not toxic | significantly deceased | not toxic | –
– | CC(=O)N[C@@H]1[C@@H](O)[C@H](O)[C@@H](CO)O[C@H]1NC(=O)c1ccc(O[C@@H]2O[C@H](CO)[C@@H](O)[C@H](O)[C@H]2NC(C)=O)cc1 [Compound 3] | – | – | – | lung injury in neonatal pups with BPD (neonatal pups with BPD): prevent lung injury; TLR4 inhibition in an in vivo model system (neonatal pups with BPD): inhibit TLR4; lung architecture (neonatal pups with BPD): restored
– | CC(=O)N[C@H]1[C@H](Oc2ccc(C(=O)Nc3ccc(O[C@@H]4O[C@H](COC(C)=O)[C@@H](OC(C)=O)[C@H](OC(C)=O)[C@H]4NC(C)=O)cc3)cc2)O[C@H](CO)[C@@H](O)[C@@H]1O [Compound 6] | – | significantly deceased | not toxic | –
– | CC(=O)N[C@H]1[C@H](Oc2ccc(NC(=O)c3ccc(O[C@@H]4O[C@H](CO)[C@@H](O)[C@H](O)[C@H]4NC(C)=O)cc3)cc2)O[C@H](CO)[C@@H](O)[C@@H]1O [Compound 7] | not toxic | significantly deceased | not toxic | –
– | CC(=O)N[C@H]1[C@H](Oc2ccc(C#N)cc2)O[C@H](CO)[C@@H](O)[C@@H]1O [Compound 14, p-Cyanophenyl 2-acetamido-2-deoxy-β-D-glucopyranoside] | not toxic | significantly deceased | not toxic | –
TLR4 agonists | COc1ccc(OC2OC(CO)C(O)C(O)[C@@H]2NC(C)=O)cc1 (stereo partly shown) [Compound 38] | – | – | – | –
TLR4 agonists | CC(=O)N[C@@H]1C(Oc2ccc(Cl)cc2)OC(CO)C(O)C1O (stereo partly shown) [Compound 39] | – | – | – | –
TLR4 agonists | CC(=O)N[C@@H]1C(Oc2ccccc2O)OC(CO)C(O)C1O (stereo partly shown) [Compound 40] | – | – | – | –
– | CC(=O)O[C@H]1C(=O)[C@@]2(C)[C@H]([C@H](OC(=O)c3ccccc3)[C@]3(O)C[C@H](OC(=O)[C@H](O)[C@@H](NC(=O)c4ccccc4)c4ccccc4)C(C)=C1C3(C)C)[C@]1(OC(C)=O)CO[C@@H]1C[C@@H]2O [Taxol] | – | – | – | cytotoxicity in normal lung epithelial cells (AT-1) [3]: toxic
– | colistin [reference compound] | – | – | – | wound closure at day 13 ([4]; 25 μl Colistin 4 μg/ml or compound 100 μg/ml, each alternate day): complete closure; re-epithelialization and granulation tissue versus controls ([4]; H&E histology, day 13 post-injury): significantly enhanced

Compound | TLR2/4 antagonist or TLR4 agonist activity as shown in Table-1 (TLR4) | cytotoxicity in hPBMC (hPBMC) | VEGF induced tube formation (HUVECs [1]) | cytotoxicity in HUVECs (HUVECs [2]) | further results
CC(=O)N[C@H]1[C@H](Oc2ccc3c(C)cc(=O)oc3c2)O[C@H](COS(=O)(=O)O)[C@@H](O)[C@@H]1O [Compound 30] | TLR4 agonists | – | – | – | –
